# How the values were obtained:
# Assay in all cases: relative viability (nuclei count vs DMSO), 5 days (fraction); higher = more cells survive
# [1] = compound: O=C(NCCCNc1nc(Nc2cccc(NC(=O)N3CCCC3)c2)ncc1I)c1cccs1 [BX 795]
# Method in brief: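 Viability was read as treated-well nuclei divided by vehicle-well nuclei, using the median across plates. Lung cancer cell lines in 1536-well plates were kept overnight at 37 °C, pinned with five √10-spaced library-drug doses, and after 5 days were Hoechst-stained, imaged at 4× and counted in MetaXpress. Plates passed only with control CV below 25% and at least one doubling.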
# [2] = compound: O=C(NCCCNc1nc(Nc2cccc(NC(=O)N3CCCC3)c2)ncc1I)c1cccs1 [BX 795] + N=C(N)NC(=N)NCCc1ccccc1 [Phenformin] (partner 250 µM)
# Method in brief: (§1)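 Lung cancer cell lines were seeded in 1536-well plates and dosed by pin tool the next day, with either a single drug or a fixed anchor-drug dose combined with five library-drug doses (not always all listed) spaced in √10 steps. Five days later, one step fixed the cells and stained their nuclei (final 0.05% Triton X-100, 1% formaldehyde, 1 ug/ml Hoechst), and nuclei were counted on 4× images. Relative viability is the nuclei count in treated wells divided by the count in vehicle wells, and each value is the median of duplicate plates.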
# [3] = compound: O=C(NCCCNc1nc(Nc2cccc(NC(=O)N3CCCC3)c2)ncc1I)c1cccs1 [BX 795] + C[C@]1(O)C[C@@H](c2nc(-c3ccc4ccc(-c5ccccc5)nc4c3)c3c(N)nccn32)C1 [Linsitinib] (partner 1 µM)
# Method in brief: as §1
# [4] = compound: O=C(NCCCNc1nc(Nc2cccc(NC(=O)N3CCCC3)c2)ncc1I)c1cccs1 [BX 795] + Cc1nc(Nc2ncc(C(=O)Nc3c(C)cccc3Cl)s2)cc(N2CCN(CCO)CC2)n1 [Dasatinib] (partner 0.075 µM)
# Method in brief: as §1
# [5] = compound: O=C(NCCCNc1nc(Nc2cccc(NC(=O)N3CCCC3)c2)ncc1I)c1cccs1 [BX 795] + NC(=O)Nc1cc(-c2cccc(F)c2)sc1C(=O)N[C@H]1CCCNC1 [AZD7762] (partner 0.2 µM)
# Method in brief: as §1
Cell Line,relative viability ([1]; 0.04 µM),relative viability ([1]; 0.1265 µM),relative viability ([1]; 0.4 µM),relative viability ([1]; 1.265 µM),relative viability ([2]; first compound 0.04 µM),relative viability ([2]; first compound 0.1265 µM),relative viability ([2]; first compound 0.4 µM),relative viability ([2]; first compound 1.265 µM),relative viability ([3]; first compound 0.04 µM),relative viability ([3]; first compound 0.1265 µM),relative viability ([3]; first compound 0.4 µM),relative viability ([3]; first compound 1.265 µM),relative viability ([4]; first compound 0.04 µM),relative viability ([4]; first compound 0.1265 µM),relative viability ([4]; first compound 0.4 µM),relative viability ([4]; first compound 1.265 µM),relative viability ([5]; first compound 0.04 µM),relative viability ([5]; first compound 0.1265 µM),relative viability ([5]; first compound 0.4 µM),relative viability ([5]; first compound 1.265 µM)
NCI-H650,0.933,1.02,0.954,0.805,0.467,0.425,0.5,0.408,0.752,0.739,1.03,0.549,0.463,0.41,0.42,0.337,0.843,0.908,0.701,1.05
NCI-H441,1.39,1.24,1.48,0.802,0.986,0.831,0.983,0.531,0.667,0.528,0.854,0.326,0.695,0.7,0.587,0.459,1.23,1.21,1.07,0.866
HCC-827,1,1.02,1.04,1.01,0.448,0.372,0.414,0.387,0.972,0.849,0.987,0.75,0.334,0.375,0.307,0.414,0.206,0.224,0.211,0.221
NCI-H2023,0.906,0.904,0.571,0.6,0.426,0.378,0.305,0.195,0.572,0.71,0.445,0.314,0.5,0.54,0.306,0.302,,,,
NCI-H1975,0.977,1.07,0.858,0.806,0.409,0.442,0.422,0.317,0.83,1.04,0.977,0.659,0.346,0.433,0.401,0.289,0.705,0.792,0.67,0.564
SK-LU-1,0.91,1.18,0.629,0.836,0.495,0.608,,0.316,1.03,1.13,0.722,0.777,0.142,0.181,,0.135,,,,
NCI-H2347,1.14,1.01,1.28,0.935,0.475,0.466,0.555,0.391,1.09,0.962,1.17,0.942,0.385,0.325,0.293,0.283,0.806,0.838,0.677,0.578
SK-MES-1,1.06,0.979,0.932,0.761,0.691,0.628,0.592,0.419,1.11,0.985,0.992,0.745,0.416,0.453,0.164,0.223,,,,
NCI-H661,1.09,0.994,1.03,1.04,0.261,0.245,0.274,0.238,0.615,0.641,0.34,0.433,0.9,0.938,0.501,0.515,,,,
NCI-H2170,0.955,0.951,0.958,0.942,0.46,0.383,0.446,0.413,,,,,0.594,0.517,0.476,0.64,0.874,1.09,0.812,0.791
LU99A,0.946,0.894,0.84,0.778,0.875,0.741,0.915,0.53,0.552,0.631,0.467,0.225,0.78,0.571,0.472,0.364,0.344,0.355,0.347,0.24
HCC-15,0.967,1.05,0.973,0.804,0.423,0.485,0.482,0.283,0.915,0.964,0.937,0.675,0.54,0.587,0.559,0.463,1.21,1.26,1.27,1.18
H3255,0.985,1.07,1.02,0.949,0.371,0.354,0.406,0.363,1.04,1.07,1.05,0.842,0.361,0.307,0.346,0.386,0.933,0.869,0.846,0.859
NCI-H2009,0.981,0.976,0.996,0.782,0.492,0.447,0.447,0.305,1.27,1.19,1.19,0.871,0.261,0.292,0.249,0.162,,,,
NCI-H322M,1.09,0.964,1.12,1.25,0.858,0.796,0.951,0.659,0.984,1.01,1.02,0.967,0.256,0.254,0.295,0.28,0.62,0.532,0.555,0.753
NCI-H2405,1.06,0.963,0.988,0.89,0.438,0.355,0.33,0.262,0.871,0.828,0.678,0.694,0.185,0.193,0.191,0.187,0.714,0.678,0.664,0.573

# From the supplement of paper PMC10307832
